Columns and labels:
Type in all cases: biochemical
[1] = target: T1, human NDP kinase A (NDPK-A) variant L55H (Homo sapiens, UniProt P15531, L55H); assay: Pre-steady-state phosphotransfer, fluorescence stopped-flow
T1 construct: made in house; host or cells: E. coli

[2] = target: T2, Dictyostelium discoideum NDP kinase (Dd-NDPK) variant N119S, SEQ ID NO: 1 (Dictyostelium discoideum, UniProt P22887, N119S); assay: as above; details: for k2/Ks: catalytic efficiency of phosphotransfer, N119S, pre-steady state; for reaction with N119S relative to wild type (times faster): from k2/Ks of Table I
T2 construct: made in house

[3] = target: T3, Dictyostelium discoideum NDP kinase (Dd-NDPK), wild type (Dictyostelium discoideum, UniProt P22887); assay: as above; details: catalytic efficiency of phosphotransfer, wt
T3 construct: made in house

[4] = target: T4, Dictyostelium NDP Kinase N119S (Dictyostelium discoideum, UniProt P22887, N119S); assay: Pre-steady-state fluorescence stopped-flow phosphotransfer from nucleoside triphosphates, N119S Dd-NDPK; details: for times faster reaction with the N119S enzyme than wild type: from Table I; for k2/Ks N119S (catalytic efficiency of phosphotransfer): pre-steady state, stopped-flow, average of three determinations
T4 construct: made in house
Method: All numbers in italics have already been published (Schneider, 1998, 2000) The kinetic constants were measured at the pre-steady-state level using a fluorescence stopped-flow device. The binding constants were determined at equilibrium by recording the increase in fluorescence (Schneider, 2000). Values are the average of three independent determinations.
As the diphosphate form of analogs were not always available, the triphosphate analogs were used to study phosphate transfer in reaction as in Scheme I. Experiments were performed with an Hi-Tech DX2 microvolume stopped-flow reaction (Schneider, 1998) at Aexc=296 nm (for Ado derivatives) or […] (for other nucleotides), 2 mm excitation slit and a 320 nm cutoff filter at the emission. After mixing NDPK (1 μM) and NTP or an analogTP (10-500 μM), the intrinsic protein fluorescence was recorded for 10-200 sec. In each experiment, 400 pairs of data were recorded, and the data from 3-4 identical experiments were averaged and fitted to a number of non-linear analytical equations using the software provided by Hi-Tech. All curves fitted to single exponentials.
(§1) The data were analyzed using the reaction scheme: [drawing 1]
In both the forward and the reverse reactions, the product concentration remains very low, thus the product binding can be neglected, and the observed single step could be attributed to the phosphotransfer (Schneider, 1998). The rate of this observed single step is: [formula]
and reaches a limiting value (k+2) at NTP saturation. Saturation could not be obtained with the concentrations of any NTP used here. Therefore, catalytic efficiencies of phosphorylation (CEphos=k+2/(k−1/k+1)=k+2/KS) were measured, which are equivalent to second order constants and allow a reliable comparison of a variety of NDP kinase substrates.

[5] = target: T5, Dictyostelium NDP Kinase wt (Dictyostelium discoideum, UniProt P22887); assay: Pre-steady-state fluorescence stopped-flow phosphotransfer from nucleoside triphosphates, wild type Dd-NDPK; details: average of three determinations
T5 construct: made in house
Method: The binding constants were determined at equilibrium by recording the increase in fluorescence (Schneider, 2000).
After mixing NDPK (1 μM) and NTP or an analogTP (10-500 μM), the intrinsic protein fluorescence was recorded for 10-200 sec. In each experiment, 400 pairs of data were recorded, and the data from 3-4 identical experiments were averaged and fitted to a number of non-linear analytical equations using the software provided by Hi-Tech.
as §1
The rate of this observed single step is: [formula]
and reaches a limiting value (k+2) at NTP saturation. […] Therefore, catalytic efficiencies of phosphorylation (CEphos=k+2/(k−1/k+1)=k+2/KS) were measured, which are equivalent to second order constants and allow a reliable comparison of a variety of NDP kinase substrates.

T4 sequence (P22887 whole entry N119S): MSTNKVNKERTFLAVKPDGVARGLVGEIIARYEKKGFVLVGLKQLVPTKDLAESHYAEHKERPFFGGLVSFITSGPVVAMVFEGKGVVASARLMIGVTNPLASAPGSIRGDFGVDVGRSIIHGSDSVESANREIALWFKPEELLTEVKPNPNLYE
T2 sequence (P22887 whole entry N119S): as above
T1 sequence (P15531 whole entry L55H): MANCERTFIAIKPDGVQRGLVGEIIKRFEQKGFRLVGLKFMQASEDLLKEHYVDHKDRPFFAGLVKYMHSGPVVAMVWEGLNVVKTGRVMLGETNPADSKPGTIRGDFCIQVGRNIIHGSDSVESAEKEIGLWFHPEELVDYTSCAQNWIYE
T3 sequence (P22887 whole entry): as the sequence (P22887 whole entry N119S) above, with S119N counted along it
T5 sequence (P22887 whole entry): as the sequence (P22887 whole entry N119S) above, with S119N counted along it

SMILES | k2/Ks ([1]; catalytic efficiency of phosphotransfer, L55H, pre-steady state) | Specificity change (R) ([1]; ratio of catalytic efficiencies analog vs natural nucleotide, mutant vs wild type) | k2/Ks [2] | reaction with N119S relative to wild type (times faster) [2] | k2/Ks [3] | times faster reaction with the N119S enzyme than wild type [4] | k2/Ks N119S (catalytic efficiency of phosphotransfer) [4] | k2/Ks wt (catalytic efficiency of phosphotransfer) [5]
Cc1cn([C@H]2C[C@H](N=[N+]=[N-])[C@@H](COP(=O)(O)OP(=O)(O)OP(=O)(O)O)O2)c(=O)[nH]c1=O [AZT-TP] | 930 M⁻¹ s⁻¹ | (8) | 1100 M⁻¹ s⁻¹ | 4 times | 270 M⁻¹ s⁻¹ | 4 times | 1100 M⁻¹ s⁻¹ | 
Nc1nc2c(ncn2[C@H]2CC[C@@H](COP(=O)(O)OP(=O)(O)OP(=O)(O)O)O2)c(=O)[nH]1 [ddGTP, dideoxy-GTP] |  |  | 3500 M⁻¹ s⁻¹ | 1.5 times | 2300 M⁻¹ s⁻¹ | 1.5 times | 3500 M⁻¹ s⁻¹ | 2300 M⁻¹ s⁻¹

Source: US20030207830A1, “Mutant NDP kinases for antiviral nucleotide analog activation and therapeutic uses thereof” (priority 2002, published 2003)
